Source: patent US9493487B2, “3-(1H-imidazo[4,5-C]pyridin-2-YL)-1H-pyrazolo[3,4-B]pyridine and therapeutic uses thereof” (Samumed, LLC, priority 2014, dated 2016)

These molecules were tested on Wnt activity (Sp5-Luc reporter, SW480 colon carcinoma cells) (assay: Sp5-Luc Wnt reporter gene assay in SW480 colon carcinoma cells). Settings: Homo sapiens; SW480 cells stably expressing Sp5-Luc reporter; 42 h incubation; BrightGlo luminescence normalized to DMSO.
Format: cell-based
From the text: The screening assay for Wnt activity is described as follows. Reporter cell lines can be generated by stably transducing cancer cell lines (e.g., colon cancer) or primary cells (e.g., IEC-6 intestinal cells) with a lentiviral construct that includes a Wnt-responsive promoter driving expression of the firefly luciferase gene.
SW480 colon carcinoma cells were transduced with a lentiviral vector expressing luciferase with a human Sp5 promoter consisting of a sequence of eight TCF/LEF binding sites. SW480 cells stably expressing the Sp5-Luc reporter gene and a hygromycin resistance gene were selected by treatment with 150 μg/ml of hygromycin for 7 days. These stably transduced SW480 cells were expanded in cell culture and used for all further screening activities. For Sp5-Luc reporter gene assays, the cells were plated at 10,000 cells/well in 96-well plates with growth medium containing 10% fetal calf serum and incubated overnight at 37° C. and 5% CO2. Each compound was dissolved in DMSO as a 10 mM stock in standard j-vials and used to prepare compound source plates in dose-response format with 3-fold serial dilutions and a 10 mM top concentration. Compound transfer from serially diluted source plates to assay plates containing the cells was accomplished using a pintool (Multimek 96, Beckman equipped with V&P Scientific FP1S50H pins) based liquid handling protocol. This protocol used a slotted pin to transfer 50 nl of compound from a source plate well to an assay plate well containing 50 μl of cells in growth medium. […] Control wells received 50 nl of DMSO treatment for normalization and calculating IC50 values. The treated cells were incubated at 37° C. and 5% CO2 for an additional forty-two hours. Following incubation, the growth medium was removed and 50 μl of BrightGlo luminescence reagent (Promega) was added to each well of the 96-well assay plates. The plates were placed on an orbital shaker for 5 min and then luminescence was quantified on the Victor3 (Perkin Elmer) plate reader. Readings were normalized to DMSO only treated cells, and normalized activities were utilized for IC50 calculations using the dose-response log (inhibitor) vs. response-variable slope (four parameters) nonlinear regression feature available in GraphPad Prism 5.0 or 6.0.

Point of comparison: O=C(CC1CCCCC1)Nc1cncc(-c2cnc3[nH]nc(-c4nc5c(-c6cccc(F)c6)nccc5[nH]4)c3c2)c1 [Compound 899, 2-Cyclohexyl-N-(5-(3-(4-(3-fluorophenyl)-1H-imidazo[4,5-c]pyridin-2-yl)-1H-pyrazolo[3,4-b]pyridin-5-yl)pyridin-3-yl)acetamide], IC50 1970 nM. Against it:
- Fc1cccc(-c2nccc3[nH]c(-c4n[nH]c5ncc(-c6cncc(CN7CCC(F)(F)C7)c6)cc45)nc23)c1 [Compound 25, 5-(5-((3,3-Difluoropyrrolidin-1-yl)methyl)pyridin-3-yl)-3-(4-(3-fluorophenyl)-1H-imidazo[4,5-c]pyridin-2-yl)-1H-pyrazolo[3,4-b]pyridine] — 58-fold lower, 33.9 nM
- Fc1ccc(-c2nccc3[nH]c(-c4n[nH]c5ncc(-c6cncnc6)cc45)nc23)cc1 [Compound 52, 3-(4-(4-Fluorophenyl)-1H-imidazo[4,5-c]pyridin-2-yl)-5-(pyrimidin-5-yl)-1H-pyrazolo[3,4-b]pyridine] — 13-fold lower, 155 nM
- c1cncc(-c2cnc3[nH]nc(-c4nc5c(-c6cccnc6)nccc5[nH]4)c3c2)c1 [Compound 82, 5-(Pyridin-3-yl)-3-(4-(pyridin-3-yl)-1H-imidazo[4,5-c]pyridin-2-yl)-1H-pyrazolo[3,4-b]pyridine] — 47-fold lower, 41.9 nM
- c1cncc(-c2nccc3[nH]c(-c4n[nH]c5ncc(-c6cncc(CN7CCCCC7)c6)cc45)nc23)c1 [Compound 93, 5-(5-(Piperidin-1-ylmethyl)pyridin-3-yl)-3-(4-(pyridin-3-yl)-1H-imidazo[4,5-c]pyridin-2-yl)-1H-pyrazolo[3,4-b]pyridine] — 2-fold higher, 3880 nM
- O=C(Nc1cncc(-c2cnc3[nH]nc(-c4nc5c(-c6ccncc6)nccc5[nH]4)c3c2)c1)C1CCCCC1 [Compound 126, N-(5-(3-(4-(Pyridin-4-yl)-1H-imidazo[4,5-c]pyridin-2-yl)-1H-pyrazolo[3,4-b]pyridin-5-yl)pyridin-3-yl)cyclohexanecarboxamide] — 1.8-fold lower, 1120 nM
- Cc1cn(-c2nccc3[nH]c(-c4n[nH]c5ncc(-c6cncc(NC(=O)C(C)(C)C)c6)cc45)nc23)cn1 [Compound 190, N-(5-(3-(4-(4-Methyl-1H-imidazol-1-yl)-1H-imidazo[4,5-c]pyridin-2-yl)-1H-pyrazolo[3,4-b]pyridin-5-yl)pyridin-3-yl)pivalamide] — within 1.5-fold, 1580 nM
- CC(C)C(=O)Nc1cncc(-c2cnc3[nH]nc(-c4nc5c(N6CCN(C)CC6)nccc5[nH]4)c3c2)c1 [Compound 217, N-(5-(3-(4-(4-Methylpiperazin-1-yl)-1H-imidazo[4,5-c]pyridin-2-yl)-1H-pyrazolo[3,4-b]pyridin-5-yl)pyridin-3-yl)isobutyramide] — 2.9-fold lower, 673 nM
- CN1CCN(c2nccc3[nH]c(-c4n[nH]c5ncc(-c6cncc(NC(=O)C7CCCC7)c6)cc45)nc23)CC1 [Compound 229, N-(5-(3-(4-(4-Methylpiperazin-1-yl)-1H-imidazo[4,5-c]pyridin-2-yl)-1H-pyrazolo[3,4-b]pyridin-5-yl)pyridin-3-yl)cyclopentanecarboxamide] — within 1.5-fold, 1550 nM
- CN1CCN(c2nccc3[nH]c(-c4n[nH]c5ncc(-c6cncnc6)cc45)nc23)CC1 [Compound 234, 3-(4-(4-Methylpiperazin-1-yl)-1H-imidazo[4,5-c]pyridin-2-yl)-5-(pyrimidin-5-yl)-1H-pyrazolo[3,4-b]pyridine] — 11-fold lower, 179 nM
- CCNCc1cncc(-c2cnc3[nH]nc(-c4nc5c(-c6ccoc6)nccc5[nH]4)c3c2)c1 [Compound 266, N-((5-(3-(4-(Furan-3-yl)-1H-imidazo[4,5-c]pyridin-2-yl)-1H-pyrazolo[3,4-b]pyridin-5-yl)pyridin-3-yl)methyl)ethanamine] — 5.8-fold lower, 339 nM
- CCCCC(=O)Nc1cncc(-c2cnc3[nH]nc(-c4nc5c(-c6ccoc6)nccc5[nH]4)c3c2)c1 [Compound 278, N-(5-(3-(4-(Furan-3-yl)-1H-imidazo[4,5-c]pyridin-2-yl)-1H-pyrazolo[3,4-b]pyridin-5-yl)pyridin-3-yl)pentanamide] — 35-fold lower, 56 nM
- CCCC(=O)Nc1cncc(-c2cnc3[nH]nc(-c4nc5c(-c6cc(F)cc(CNS(C)(=O)=O)c6)nccc5[nH]4)c3c2)c1 [Compound 407, N-(5-(3-(4-(3-Fluoro-5-(methylsulfonamidomethyl)phenyl)-1H-imidazo[4,5-c]pyridin-2-yl)-1H-pyrazolo[3,4-b]pyridin-5-yl)pyridin-3-yl)butyramide] — 27-fold lower, 74.1 nM
- CS(=O)(=O)NCc1cc(F)cc(-c2nccc3[nH]c(-c4n[nH]c5ncc(-c6cncc(CNCc7ccccc7)c6)cc45)nc23)c1 [Compound 413, N-(3-(2-(5-(5-((Benzylamino)methyl)pyridin-3-yl)-1H-pyrazolo[3,4-b]pyridin-3-yl)-1H-imidazo[4,5-c]pyridin-4-yl)-5-fluorobenzyl)methanesulfonamide] — 14-fold lower, 143 nM
- Fc1cccc(-c2nccc3[nH]c(-c4n[nH]c5ncc(C6=CCNCC6)cc45)nc23)c1 [Compound 886, 3-(4-(3-Fluorophenyl)-1H-imidazo[4,5-c]pyridin-2-yl)-5-(1,2,3,6-tetrahydropyridin-4-yl)-1H-pyrazolo[3,4-b]pyridine] — 1.9-fold higher, 3700 nM
- Fc1cccc(-c2nccc3[nH]c(-c4n[nH]c5ncc(-c6cncc(OC7CCCCC7)c6)cc45)nc23)c1 [Compound 891, 5-(5-(Cyclohexyloxy)pyridin-3-yl)-3-(4-(3-fluorophenyl)-1H-imidazo[4,5-c]pyridin-2-yl)-1H-pyrazolo[3,4-b]pyridine] — 2.1-fold lower, 935 nM
- Fc1cccc(-c2nccc3[nH]c(-c4n[nH]c5ncc(-c6cncc(OCCN7CCCC7)c6)cc45)nc23)c1 [Compound 894, 3-(4-(3-Fluorophenyl)-1H-imidazo[4,5-c]pyridin-2-yl)-5-(5-(2-(pyrrolidin-1-yl)ethoxy)pyridin-3-yl)-1H-pyrazolo[3,4-b]pyridine] — within 1.5-fold, 1500 nM
- Oc1cncc(-c2cnc3[nH]nc(-c4nc5c(-c6cccc(F)c6)nccc5[nH]4)c3c2)c1 [Compound 897, 5-(3-(4-(3-Fluorophenyl)-1H-imidazo[4,5-c]pyridin-2-yl)-1H-pyrazolo[3,4-b]pyridin-5-yl)pyridin-3-ol] — 86-fold lower, 23 nM
- Fc1cccc(-c2nccc3[nH]c(-c4n[nH]c5ncc(-c6cncc(OCc7ccccc7)c6)cc45)nc23)c1 [Compound 898, 5-(5-(Benzyloxy)pyridin-3-yl)-3-(4-(3-fluorophenyl)-1H-imidazo[4,5-c]pyridin-2-yl)-1H-pyrazolo[3,4-b]pyridine] — 1.7-fold higher, 3260 nM
- Fc1cccc(-c2nccc3[nH]c(-c4n[nH]c5ncc(-c6ccccn6)cc45)nc23)c1 [Compound 901, 3-(4-(3-Fluorophenyl)-1H-imidazo[4,5-c]pyridin-2-yl)-5-(pyridin-2-yl)-1H-pyrazolo[3,4-b]pyridine] — higher, > 10000 nM
- CC(C)CC(=O)Nc1cncc(-c2cnc3[nH]nc(-c4nc5c(-c6cc(F)cc(OCCN(C)C)c6)nccc5[nH]4)c3c2)c1 [Compound 1192, N-(5-(3-(4-(3-(2-(Dimethylamino)ethoxy)-5-fluorophenyl)-1H-imidazo[4,5-c]pyridin-2-yl)-1H-pyrazolo[3,4-b]pyridin-5-yl)pyridin-3-yl)-3-methylbutanamide] — 4.9-fold lower, 400 nM
- CC(C)CC(=O)Nc1cncc(-c2cnc3[nH]nc(-c4nc5c(-c6cc(F)cc(OCCN7CCCC7)c6)nccc5[nH]4)c3c2)c1 [Compound 1236, N-(5-(3-(4-(3-Fluoro-5-(2-(pyrrolidin-1-yl)ethoxy)phenyl)-1H-imidazo[4,5-c]pyridin-2-yl)-1H-pyrazolo[3,4-b]pyridin-5-yl)pyridin-3-yl)-3-methylbutanamide] — 4.4-fold lower, 445 nM
- CC(C)CC(=O)Nc1cncc(-c2cnc3[nH]nc(-c4nc5c(-c6cc(O)cc(F)c6)nccc5[nH]4)c3c2)c1 [Compound 1280, N-(5-(3-(4-(3-Fluoro-5-hydroxyphenyl)-1H-imidazo[4,5-c]pyridin-2-yl)-1H-pyrazolo[3,4-b]pyridin-5-yl)pyridin-3-yl)-3-methylbutanamide] — 22-fold lower, 90 nM
- COc1cc(F)cc(-c2nccc3[nH]c(-c4n[nH]c5ncc(-c6cncc(NC(=O)CC(C)C)c6)cc45)nc23)c1 [Compound 1324, N-(5-(3-(4-(3-Fluoro-5-methoxyphenyl)-1H-imidazo[4,5-c]pyridin-2-yl)-1H-pyrazolo[3,4-b]pyridin-5-yl)pyridin-3-yl)-3-methylbutanamide] — 23-fold lower, 85 nM
